# Test results as given in patent US20170008888A1 (KYORIN PHARMACEUTICAL CO., LTD., priority 2014, published 2017).
# Tests used:
# AurA = molecular target: T1, AurA (Homo sapiens, UniProt O14965); test: Probe-based (AX9989) kinase profiling in Jurkat lysate: AurA; assay type: binding; conditions: read-out: Kinase inhibition % at indicated screening concentration: AurA; for inhibition at 1 µM: screening concentration 1.0 μM; for inhibition at 0.1 µM: screening concentration 0.1 μM
# T1 construct: screened for activity against several kinases in Jurkat cells; endogenous in cells; host or cells: Jurkat cell lysate
# T1 sequence (O14965 1-403): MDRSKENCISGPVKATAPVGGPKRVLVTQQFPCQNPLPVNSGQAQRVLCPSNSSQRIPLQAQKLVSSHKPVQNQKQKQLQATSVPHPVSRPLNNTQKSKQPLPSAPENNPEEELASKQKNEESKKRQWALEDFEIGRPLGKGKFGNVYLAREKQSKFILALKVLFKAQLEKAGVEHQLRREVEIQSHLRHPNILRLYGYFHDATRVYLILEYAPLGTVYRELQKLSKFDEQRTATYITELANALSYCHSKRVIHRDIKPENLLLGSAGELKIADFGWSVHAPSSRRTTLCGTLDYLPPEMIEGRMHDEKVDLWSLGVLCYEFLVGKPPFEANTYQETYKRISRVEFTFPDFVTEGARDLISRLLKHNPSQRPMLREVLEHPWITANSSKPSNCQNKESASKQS
# In short: (§1)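 Jurkat lysate (50 mM HEPES pH 7.5, 150 mM NaCl, 0.1% Triton X-100, 20 mM MnCl2) pre-incubated 15 min with compound at room temperature, then labeled with 5 μM acyl phosphate ATP probe AX9989. Tryptic probe-labeled peptides streptavidin-captured and quantified by LC/MS; percent inhibition from decreased fragment intensity versus untreated.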
# JAK1 = molecular target: T2, JAK1 (Homo sapiens, UniProt P23458); test: Probe-based (AX9989) kinase profiling in Jurkat lysate: JAK1; assay type: binding; conditions: read-out: Kinase inhibition % at indicated screening concentration: JAK1; for inhibition at 1 µM: screening concentration 1.0 μM; for inhibition at 0.1 µM: screening concentration 0.1 μM
# T2 construct: screened for activity against several kinases in Jurkat cells; endogenous in cells; host or cells: Jurkat cell lysate
# In short: as §1
# AurB or AurC = test: Probe-based (AX9989) kinase profiling in Jurkat lysate: AurB or AurC; assay type: binding
# In short: as §1
# ERK5 = molecular target: T3, ERK5 (Homo sapiens, UniProt Q13164); test: Probe-based (AX9989 acyl phosphate ATP probe) kinase profiling in Jurkat lysate: ERK5; assay type: binding; conditions: for IC50: calculated from percent inhibition of AX9989 labeling and the screening concentration, Jurkat lysate; for inhibition at 1 µM: screening concentration 1.0 μM; for inhibition at 1 µM / inhibition at 0.1 µM: read-out: Kinase inhibition % at indicated screening concentration: ERK5; for inhibition at 0.1 µM: screening concentration 0.1 μM
# T3 construct: screened for activity against several kinases in Jurkat cells; endogenous in cells; host or cells: Jurkat cell lysate
# In short: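 ERK5 IC50 values came from percent inhibition at the screening concentration, measured as loss of LC/MS signal of probe-labelled active-site peptides. Compound was added for 15 min at room temperature to Jurkat lysate (5 mg/ml, 20 mM MnCl2) before labelling with AX9989 ATP acyl phosphate probe at 5 μM.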
# ACK = molecular target: T4, ACK (Homo sapiens, UniProt Q07912); test: Probe-based (AX9989) kinase profiling in Jurkat lysate: ACK; assay type: binding; conditions: read-out: Kinase inhibition % at indicated screening concentration: ACK; for inhibition at 1 µM: screening concentration 1.0 μM; for inhibition at 0.1 µM: screening concentration 0.1 μM
# T4 construct: screened for activity against several kinases in Jurkat cells; endogenous in cells; host or cells: Jurkat cell lysate
# In short: as §1
# human PBMCs = test: Human PBMC TNF-α response to endotoxin (ELISA); assay type: cell-based; conditions: 0.1 μg/ml LPS 16 h, read-out: EC50 for the inhibition of the human PBMC TNF-α response to endotoxin, ave. ± S.D.
# In short: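 PBMCs at 2e6 cells/ml in RPMI 1640 with 10% charcoal-dextran-treated FBS were pre-treated 1 h at 37 °C with compound (4-point 1:5 dilution from 10 μM). Stimulation with 0.1 μg/ml E. coli 0111:B4 LPS for 16 h; TNF-α measured by ELISA (A450) in 25-fold diluted supernatant.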
# T3 sequence (Q13164 whole entry): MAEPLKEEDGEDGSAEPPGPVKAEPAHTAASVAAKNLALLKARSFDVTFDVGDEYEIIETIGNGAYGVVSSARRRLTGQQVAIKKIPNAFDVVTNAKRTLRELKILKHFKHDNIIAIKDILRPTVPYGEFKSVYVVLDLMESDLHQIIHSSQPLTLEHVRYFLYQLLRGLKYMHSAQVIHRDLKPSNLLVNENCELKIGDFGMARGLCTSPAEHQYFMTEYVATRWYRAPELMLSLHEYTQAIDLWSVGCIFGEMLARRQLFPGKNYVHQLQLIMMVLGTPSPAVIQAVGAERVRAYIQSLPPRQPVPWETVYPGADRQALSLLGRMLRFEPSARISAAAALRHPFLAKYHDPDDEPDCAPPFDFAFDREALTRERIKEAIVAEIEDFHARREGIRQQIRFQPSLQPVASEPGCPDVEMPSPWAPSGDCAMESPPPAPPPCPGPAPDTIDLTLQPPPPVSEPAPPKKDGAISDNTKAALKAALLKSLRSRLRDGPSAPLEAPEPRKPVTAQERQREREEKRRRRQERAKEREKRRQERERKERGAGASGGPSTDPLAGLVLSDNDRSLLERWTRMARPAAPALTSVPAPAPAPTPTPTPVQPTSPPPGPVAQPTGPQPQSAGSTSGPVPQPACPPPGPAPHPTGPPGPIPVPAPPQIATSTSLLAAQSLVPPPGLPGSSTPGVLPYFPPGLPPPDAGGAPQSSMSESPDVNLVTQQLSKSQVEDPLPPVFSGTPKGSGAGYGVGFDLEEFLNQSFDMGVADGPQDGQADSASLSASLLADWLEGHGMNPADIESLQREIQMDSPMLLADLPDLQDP
# T4 sequence (Q07912 whole entry): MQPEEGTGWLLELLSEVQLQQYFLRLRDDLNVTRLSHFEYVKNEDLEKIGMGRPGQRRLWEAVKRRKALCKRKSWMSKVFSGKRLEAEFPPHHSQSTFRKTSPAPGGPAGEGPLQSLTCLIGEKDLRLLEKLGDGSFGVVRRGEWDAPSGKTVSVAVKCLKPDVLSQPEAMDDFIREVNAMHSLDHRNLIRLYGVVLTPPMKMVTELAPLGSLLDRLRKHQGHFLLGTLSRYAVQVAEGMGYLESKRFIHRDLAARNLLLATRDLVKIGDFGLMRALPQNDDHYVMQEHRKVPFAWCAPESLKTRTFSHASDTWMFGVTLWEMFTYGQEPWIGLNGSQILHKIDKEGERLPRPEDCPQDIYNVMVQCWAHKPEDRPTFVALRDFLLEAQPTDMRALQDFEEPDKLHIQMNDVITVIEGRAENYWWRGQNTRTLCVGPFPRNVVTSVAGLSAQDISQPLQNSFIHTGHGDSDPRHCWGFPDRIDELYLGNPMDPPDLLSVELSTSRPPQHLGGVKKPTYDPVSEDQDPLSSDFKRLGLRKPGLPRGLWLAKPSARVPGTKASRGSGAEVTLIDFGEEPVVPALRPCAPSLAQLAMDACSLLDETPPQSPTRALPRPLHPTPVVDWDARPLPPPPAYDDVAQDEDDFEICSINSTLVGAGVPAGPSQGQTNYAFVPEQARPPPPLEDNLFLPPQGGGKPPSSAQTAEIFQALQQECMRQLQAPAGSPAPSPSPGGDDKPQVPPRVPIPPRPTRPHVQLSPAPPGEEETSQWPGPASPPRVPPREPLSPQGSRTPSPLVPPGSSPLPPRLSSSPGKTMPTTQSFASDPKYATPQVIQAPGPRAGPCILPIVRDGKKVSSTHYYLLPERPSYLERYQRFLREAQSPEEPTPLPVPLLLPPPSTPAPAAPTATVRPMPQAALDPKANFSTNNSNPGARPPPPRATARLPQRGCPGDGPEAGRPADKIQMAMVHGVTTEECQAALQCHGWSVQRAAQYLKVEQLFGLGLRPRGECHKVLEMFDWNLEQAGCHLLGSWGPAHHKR
# T2 sequence (P23458 whole entry): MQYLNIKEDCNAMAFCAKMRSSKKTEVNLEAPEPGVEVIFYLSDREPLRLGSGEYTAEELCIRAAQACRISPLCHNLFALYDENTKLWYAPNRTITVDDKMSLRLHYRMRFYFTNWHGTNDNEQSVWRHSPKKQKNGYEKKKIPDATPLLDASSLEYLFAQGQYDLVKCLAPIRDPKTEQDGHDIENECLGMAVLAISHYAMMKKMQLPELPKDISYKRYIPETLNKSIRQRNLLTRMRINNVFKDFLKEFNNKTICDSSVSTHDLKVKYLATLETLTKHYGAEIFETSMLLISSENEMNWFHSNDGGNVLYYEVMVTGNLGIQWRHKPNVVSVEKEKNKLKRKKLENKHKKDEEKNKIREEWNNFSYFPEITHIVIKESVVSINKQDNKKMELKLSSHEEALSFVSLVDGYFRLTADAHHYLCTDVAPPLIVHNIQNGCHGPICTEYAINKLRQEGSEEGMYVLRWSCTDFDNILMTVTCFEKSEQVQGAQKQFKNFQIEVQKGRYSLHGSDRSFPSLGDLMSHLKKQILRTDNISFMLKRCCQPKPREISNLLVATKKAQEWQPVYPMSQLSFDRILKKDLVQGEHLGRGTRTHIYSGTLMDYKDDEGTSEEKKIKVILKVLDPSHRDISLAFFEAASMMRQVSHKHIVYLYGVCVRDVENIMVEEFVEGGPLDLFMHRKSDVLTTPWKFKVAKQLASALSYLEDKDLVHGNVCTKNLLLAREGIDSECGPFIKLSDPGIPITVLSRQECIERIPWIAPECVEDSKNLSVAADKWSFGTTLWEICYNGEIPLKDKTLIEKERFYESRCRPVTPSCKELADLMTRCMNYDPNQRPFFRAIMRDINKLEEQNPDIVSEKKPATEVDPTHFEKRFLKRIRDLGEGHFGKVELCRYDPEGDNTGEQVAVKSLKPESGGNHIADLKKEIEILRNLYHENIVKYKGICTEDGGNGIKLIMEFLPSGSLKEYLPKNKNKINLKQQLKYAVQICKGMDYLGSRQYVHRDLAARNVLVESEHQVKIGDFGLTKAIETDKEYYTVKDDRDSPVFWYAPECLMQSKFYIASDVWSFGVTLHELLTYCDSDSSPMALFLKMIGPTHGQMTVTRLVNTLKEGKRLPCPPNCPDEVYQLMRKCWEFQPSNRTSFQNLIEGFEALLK
SMILES,inhibition at 1 µM (AurA) [%],inhibition at 1 µM (JAK1) [%],Kinase inhibition % at indicated screening concentration: AurB or AurC (AurB or AurC; screening concentration 1.0 μM),IC50 (ERK5) [nM],inhibition at 1 µM (ERK5) [%],inhibition at 1 µM (ACK) [%],inhibition at 0.1 µM (AurA) [%],inhibition at 0.1 µM (JAK1) [%],Kinase inhibition % at indicated screening concentration: AurB or AurC (AurB or AurC; screening concentration 0.1 μM),inhibition at 0.1 µM (ERK5) [%],inhibition at 0.1 µM (ACK) [%],EC50 (human PBMCs) [nM]
CCOc1cc(C(=O)N2CCN(CCOCCO)CC2)ccc1Nc1cc2c(cn1)N(C)C(=O)c1ccccc1N2C [Compound 6],≤ 35,≤ 35,E (E is ≦35%),≤ 50,> 90,≤ 35,,,,,,540
CCOc1cc(C(=O)N2CCCN(C)CC2)ccc1Nc1cc2c(cn1)N(C)C(=O)c1ccccc1N2C [Compound 8],≤ 35,≤ 35,E (E is ≦35%),101 to 500,> 90,≤ 35,,,,,,650
CCOc1cc(C(=O)N2CCN(CC3CC3)CC2)ccc1Nc1cc2c(cn1)N(C)C(=O)c1ccccc1N2C [Compound 10],,,,≤ 50,,,≤ 35,≤ 35,E (E is ≦35%),75 to 90,≤ 35,1280
"CCOc1cc(C(=O)N2CCC(N3CCCC3)CC2)ccc1Nc1cc2c(cn1)N(C)C(=O)c1ccccc1N2C [Compound 46, 3-(2-Ethoxy-4-(4-(pyrrolidin-1-yl)piperidine-1-carbonyl)phenylamino)-5,11-dimethyl-5H-benzo[e]pyrido[3,4-b][1,4]diazepin-10(11H)-one]",≤ 35,≤ 35,E (E is ≦35%),≤ 50,> 90,≤ 35,,,,,,470
Cc1cc(CN2CC[C@@H](N3CCCC3)C2)ccc1Nc1cc2c(cn1)N(C)C(=O)c1ccccc1N2C [Compound 49],,,,≤ 50,,,≤ 35,≤ 35,E (E is ≦35%),> 90,≤ 35,1510
CCOc1cc(C(N)=O)ccc1Nc1cc2c(cn1)N(C)C(=O)c1ccccc1N2C [Compound 51],,,,101 to 500,,,≤ 35,≤ 35,E (E is ≦35%),35 to 50,≤ 35,2040
CCOc1cc(C(=O)N2CCC(O)CC2)ccc1Nc1cc2c(cn1)N(C)C(=O)c1ccccc1N2C [Compound 52],≤ 35,≤ 35,E (E is ≦35%),50 to 100,> 90,≤ 35,,,,,,820
CN1C(=O)c2occc2N(C)c2cc(N[C@H]3CC[C@H](N)CC3)ncc21 [Compound 53],≤ 35,≤ 35,E (E is ≦35%),101 to 500,75 to 90,≤ 35,,,,,,4130
CCOc1cc(C(=O)NCCCN(CC)CC)ccc1Nc1cc2c(cn1)N(C)C(=O)c1ccccc1N2C [Compound 54],≤ 35,≤ 35,E (E is ≦35%),101 to 500,75 to 90,≤ 35,,,,,,600

# Continued, in another order:
inhibition at 1 µM (AurA) [%],inhibition at 1 µM (JAK1) [%],Kinase inhibition % at indicated screening concentration: AurB or AurC (AurB or AurC; screening concentration 1.0 μM),IC50 (ERK5) [nM],inhibition at 1 µM (ERK5) [%],inhibition at 1 µM (ACK) [%],inhibition at 0.1 µM (AurA) [%],inhibition at 0.1 µM (JAK1) [%],Kinase inhibition % at indicated screening concentration: AurB or AurC (AurB or AurC; screening concentration 0.1 μM),inhibition at 0.1 µM (ERK5) [%],inhibition at 0.1 µM (ACK) [%],SMILES,EC50 (human PBMCs) [nM]
,,,≤ 50,,,≤ 35,≤ 35,E (E is ≦35%),50 to 75,≤ 35,CCOc1cc(C(=O)NCCN(C(C)C)C(C)C)ccc1Nc1cc2c(cn1)N(C)C(=O)c1ccccc1N2C [Compound 55],1160 ± 450
,,,≤ 50,,,≤ 35,≤ 35,E (E is ≦35%),> 90,≤ 35,CCOc1cc(C(=O)N2CC[C@@H](N3CCCCC3)C2)ccc1Nc1cc2c(cn1)N(C)C(=O)c1occc1N2C [Compound 56],600 ± 190
≤ 35,≤ 35,E (E is ≦35%),101 to 500,50 to 75,≤ 35,,,,,,CCOc1cc(C(=O)NCC2CC2)ccc1Nc1cc2c(cn1)N(C)C(=O)c1ccccc1N2C [Compound 57],1080
≤ 35,≤ 35,E (E is ≦35%),50 to 100,> 90,≤ 35,,,,,,CCOc1cc(C(=O)N2CCC(N3CCN(C)CC3)CC2)ccc1Nc1cc2c(cn1)N(C)C(=O)c1ccccc1N2C [Compound 61],890 ± 290
≤ 35,≤ 35,E (E is ≦35%),≤ 50,> 90,≤ 35,,,,,,CCOc1cc(C(=O)N2CCNCC2)ccc1Nc1cc2c(cn1)N(C)C(=O)c1ccccc1N2C [Compound 62],720
≤ 35,≤ 35,E (E is ≦35%),50 to 100,> 90,≤ 35,,,,,,CCOc1cc(C(=O)N2CCC(OC)CC2)ccc1Nc1cc2c(cn1)N(C)C(=O)c1ccccc1N2C [Compound 63],870
≤ 35,≤ 35,E (E is ≦35%),101 to 500,75 to 90,≤ 35,,,,,,CN1C(=O)c2ccccc2N(C)c2cc(NC3CCC(C(=O)NC4CCOCC4)CC3)ncc21 (stereo not drawn) [Compound 64],3170
,,,≤ 50,,,≤ 35,≤ 35,E (E is ≦35%),> 90,≤ 35,CCOc1cc(C(=O)N2CCC(N3CCN(C)CC3)CC2)ccc1Nc1cc2c(cn1)N(C)C(=O)c1occc1N2C [Compound 65],460
≤ 35,≤ 35,E (E is ≦35%),> 500,50 to 75,≤ 35,,,,,,CCOc1cc(C(=O)NCCO)ccc1Nc1cc2c(cn1)N(C)C(=O)c1ccccc1N2C [Compound 66],1330
,,,≤ 50,,,≤ 35,≤ 35,E (E is ≦35%),> 90,≤ 35,CCOc1cc(C(=O)N2CC[C@@H](N(CC)CC)C2)ccc1Nc1cc2c(cn1)N(C)C(=O)c1occc1N2C [Compound 67],920 ± 180
≤ 35,≤ 35,E (E is ≦35%),101 to 500,50 to 75,≤ 35,,,,,,CCOc1cc(C(=O)N[C@@H]2CCCOC2)ccc1Nc1cc2c(cn1)N(C)C(=O)c1ccccc1N2C [Compound 69],1070
,,,≤ 50,,,≤ 35,≤ 35,E (E is ≦35%),50 to 75,≤ 35,COc1cc(C(=O)N2CCC(N(C)C)C2)ccc1Nc1cc2c(cn1)N(C)C(=O)c1ccccc1N2C (stereo not drawn) [Compound 70],2100
